The text below walks through data of patent publication US9776972B2, “Pyrazole derivatives as arginine methyltransferase inhibitors and uses thereof” (priority 2013, dated 2017).

Experiment [1] concerns mono-methyl arginine in RKO cells. Kind of experiment: RKO Methylation Assay, In Cell Western (ICW) for mono-methyl arginine and DNA content. The class given is cell-based. The note with it: Homo sapiens, RKO, 72 h. The essentials: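 After fixation, mono-methyl arginine and DNA (DRAQ5) were measured by infrared In-Cell Western imaging at 700/800 nm in RKO cells exposed to compounds for 72 hours. Percent activation used DMSO wells as minimum and 20 μM reference compound as maximum; EC30 curves fitted on triplicate wells.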

Another experiment has as its target T1, human PRMT6 (Homo sapiens, UniProt Q96LA8).
T1 construct: Flag-PRMT6-His; made in house; host or cells: HEK 293F cells (BacMam baculovirus)
Kind of experiment: PRMT6 Biochemical Assay (3H-SAM Flashplate, peptide substrate). The note with it: Biochemical IC50 PRMT6, single experiment or average of multiple experiments. The essentials: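 Methylation of a biotin-tagged H4 (36-50) peptide by ³H-SAM was quantified by streptavidin Flashplate capture and scintillation counts (dpm/cpm). Before SAM/peptide addition, Flag-PRMT6-His was preincubated with compound for 30 min at room temperature in Bicine buffer, pH 7.6.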

Where [2] appears, read: RKO cells, 72 hours, mono-methyl arginine, percent activation, single experiment or average of multiple experiments, read-out: EC30 (In Cell Western data, Numerical).

SMILES strings stand for the structures. Where two headings read alike, the source gives them in different places.

T1 sequence (Q96LA8 with tags, fused parts or gaps): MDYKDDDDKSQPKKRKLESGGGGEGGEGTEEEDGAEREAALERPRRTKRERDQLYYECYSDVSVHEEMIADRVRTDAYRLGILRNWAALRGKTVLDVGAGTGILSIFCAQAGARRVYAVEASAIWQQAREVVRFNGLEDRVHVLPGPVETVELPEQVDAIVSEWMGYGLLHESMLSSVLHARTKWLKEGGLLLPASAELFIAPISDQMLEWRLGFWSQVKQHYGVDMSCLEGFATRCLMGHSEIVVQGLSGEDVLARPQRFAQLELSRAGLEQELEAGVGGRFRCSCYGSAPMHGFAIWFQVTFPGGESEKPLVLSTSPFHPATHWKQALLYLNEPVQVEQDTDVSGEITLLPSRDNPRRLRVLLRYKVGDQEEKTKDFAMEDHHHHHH

Take `COCCCOc1ccc(-c2n[nH]cc2CN(C)CCN)cc1` [Compound 179]: in experiment [1] (setting [2]), the EC30 (commonly the concentration needed for an effect of 30%) is 0.03 µM. Moreover, on human PRMT6, inhibition was half-maximal at 13.4 nM (IC50).
On the same counts, the results for `CNCCN(C)Cc1cn(C)nc1-c1ccc(Oc2ccccc2)cc1` [Compound 207] are 2.31 µM and 3.3 nM.
The corresponding values for `CN(CCN)Cc1c[nH]nc1-c1ccc(Oc2ccccc2)c(C(=O)N(C)C)c1` [Compound 226] are greater than 20 µM and 13.8 nM.
The corresponding values for `CC(C)CN1C(=O)COc2ccc(-c3n[nH]cc3CN(C)CCN)cc21` [Compound 191] are greater than 20 µM and 435 nM.
`CNCCN(C)Cc1c[nH]nc1-c1ccc(OCCCOC)cc1` [Compound 209]: the EC30 in experiment [1] (setting [2]) turned out to be 0.557 µM. Besides, at human PRMT6, it took 4.05 nM to reach half-maximal inhibition (IC50).
With `CNCCN(C)Cc1n[nH]cc1-c1ccc(OC(C)C)c(Cl)c1` [Compound 212], the EC30 in experiment [1] (setting [2]) was 0.238 µM. In addition, half-maximal inhibition against human PRMT6 (IC50) was put at 9.07 nM.
The corresponding values for `NCCN(CCO)Cc1c[nH]nc1-c1ccc(F)cc1` [Compound 171] are greater than 20 µM and 2420 nM.
The corresponding values for `CN(CCN1CCC1)Cc1c[nH]nc1-c1ccc(C#N)cc1` [Compound 185] are greater than 20 µM and 407 nM.
The corresponding values for `COc1ccc(F)cc1-c1n[nH]cc1CN(C)CCN` [Compound 160] are 17.7 µM and 191 nM.
Consider `CNCCN(C)Cc1cn(C2CCOC2)nc1-c1ccc(OC(C)C)cc1` (stereo not drawn) [Compound 215], for which the EC30 in experiment [1] (setting [2]) worked out at 7.47 µM. It took 323 nM to reach half-maximal inhibition against human PRMT6 (IC50).
As to `CNC(=O)c1cc(-c2n[nH]cc2CN(C)CCN)ccc1Oc1ccccc1` [Compound 227], the EC30 in experiment [1] (setting [2]) worked out at 15 µM. In addition, the midpoint of inhibition on human PRMT6, the IC50, lay at 11.5 nM.
On the same counts, the results for `CNCCN(C)Cc1cn(C(C)C)nc1-c1ccc(F)cc1` [Compound 15] are greater than 20 µM and 526 nM.
For `COc1ccc(-c2n[nH]cc2CN(C)CCN)c(Cl)c1` [Compound 146], the EC30 in experiment [1] (setting [2]) was 7.16 µM. Also, the IC50 (usually the concentration that inhibits the measured activity by half) on human PRMT6 worked out at 12.5 nM.
On the same counts, the results for `CN(CCN)Cc1c[nH]nc1-c1cc(C#N)ccc1Cl` [Compound 147] are greater than 20 µM and 53.6 nM.
The corresponding values for `CCNC(=O)c1cccc(-c2n[nH]cc2CN(C)CCN)c1` [Compound 197] are greater than 20 µM and 67.2 nM.
Take `Cc1cc(-c2n[nH]cc2CN(C)CCN)cc(C)c1OC(C)C` [Compound 199, N^1-((3-(4-isopropoxy-3,5-dimethylphenyl)-1H-pyrazol-4-yl)methyl)-N^1-methylethane-1,2-diamine]: in experiment [1] (setting [2]), the EC30 is 2.82 µM. On human PRMT6, this molecule gave an IC50 of 103 nM.
For the molecule `COc1cc(F)ccc1-c1n[nH]cc1CN(C)CCN` [Compound 151], the EC30 in experiment [1] (setting [2]) turned out to be 9.73 µM. At human PRMT6, this molecule registered a half-maximal inhibitory concentration (IC50) of 112 nM.
On the same counts, the results for `CC(C)CN(C)C(=O)c1ccc(-c2n[nH]cc2CN(C)CCN)cc1` [Compound 164] are 18.5 µM and 41.8 nM.
The corresponding values for `CC(C)Cc1ccc(-c2c[nH]nc2CN(C)CCN)cc1` [Compound 170] are 1.39 µM and 59.3 nM.
The corresponding values for `CN(CCN)Cc1c[nH]nc1-c1ccc(OCCO)cc1` [Compound 194] are 17 µM and 15.3 nM.
Regarding `CNCCN(C)Cc1cn(C)nc1-c1ccc(OC(C)C)c(Cl)c1` [Compound 206], the EC30 in experiment [1] (read-out: EC30 (In Cell Western data, Numerical, μM)) came to 1.16 µM. For the same molecule, 21.4 nM corresponded to half-maximal inhibition against human PRMT6 (IC50).
